Settings: 283.15 K, Liquid, Vibrating tube method

CCCCC(=O)OCC(COC(=O)CCCC)(COC(=O)CCCC)COC(=O)CCCC [pentaerythritol tetrapentanoate]
Settings	mass density [kg/m3]
13893 kPa	1035.1
13923 kPa	1035.1
13954 kPa	1035.2
13984 kPa	1035.2
14021 kPa	1035.1
14051 kPa	1035.3
14082 kPa	1035.2
14118 kPa	1035.2
14148 kPa	1035.3
14186 kPa	1035.3
14216 kPa	1035.4
14248 kPa	1035.3
14279 kPa	1035.4
14317 kPa	1035.3
14348 kPa	1035.4
14380 kPa	1035.4
14419 kPa	1035.5
14451 kPa	1035.4
14490 kPa	1035.4
14522 kPa	1035.5
14555 kPa	1035.4
14588 kPa	1035.5
14628 kPa	1035.4
14660 kPa	1035.5
14694 kPa	1035.6
14735 kPa	1035.6
14768 kPa	1035.7
14808 kPa	1035.6
14842 kPa	1035.6
14877 kPa	1035.7
14912 kPa	1035.6
14954 kPa	1035.8
14989 kPa	1035.5
15024 kPa	1035.7
15066 kPa	1035.6
15101 kPa	1035.7
15137 kPa	1035.8
15180 kPa	1035.8
15216 kPa	1035.8
15252 kPa	1035.9
15295 kPa	1036
15333 kPa	1035.8
15369 kPa	1036
15414 kPa	1036.1
15451 kPa	1036
15488 kPa	1036
15525 kPa	1036
15571 kPa	1036
15609 kPa	1036.1
15648 kPa	1036
15694 kPa	1036.2
15732 kPa	1036.1
15772 kPa	1036.1
15819 kPa	1036.1
15859 kPa	1036.1
15899 kPa	1036.2
15938 kPa	1036.2
15986 kPa	1036.2
16026 kPa	1036.4
16067 kPa	1036.3
16116 kPa	1036.3
16157 kPa	1036.3
16199 kPa	1036.4
16241 kPa	1036.4
16291 kPa	1036.5
16333 kPa	1036.4
16376 kPa	1036.5
16421 kPa	1036.5
16472 kPa	1036.6
16515 kPa	1036.6
16559 kPa	1036.5
16611 kPa	1036.4
16655 kPa	1036.6
16699 kPa	1036.7
16753 kPa	1036.8
16798 kPa	1036.7
16844 kPa	1036.7
16900 kPa	1036.7
16949 kPa	1036.8
17000 kPa	1036.7
17050 kPa	1036.9

From the NIST ThermoML archive (doi:10.1021/je060271a)
